In patent US9926292B2, “Pyridinyl derivatives, pharmaceutical compositions and uses thereof” (Boehringer Ingelheim International GmbH, priority 2016, dated 2018):

What was measured:
[1] = molecular target: T1, AOC3 (Homo sapiens, UniProt Q16853); assay: AOC3 biochemical assay (MAO-Glo); conditions: Table 1; read-out: AOC3 IC50
T1 construct: expressed in transfected cells; host or cells: CHO cells
T1 sequence (Q16853 1-763): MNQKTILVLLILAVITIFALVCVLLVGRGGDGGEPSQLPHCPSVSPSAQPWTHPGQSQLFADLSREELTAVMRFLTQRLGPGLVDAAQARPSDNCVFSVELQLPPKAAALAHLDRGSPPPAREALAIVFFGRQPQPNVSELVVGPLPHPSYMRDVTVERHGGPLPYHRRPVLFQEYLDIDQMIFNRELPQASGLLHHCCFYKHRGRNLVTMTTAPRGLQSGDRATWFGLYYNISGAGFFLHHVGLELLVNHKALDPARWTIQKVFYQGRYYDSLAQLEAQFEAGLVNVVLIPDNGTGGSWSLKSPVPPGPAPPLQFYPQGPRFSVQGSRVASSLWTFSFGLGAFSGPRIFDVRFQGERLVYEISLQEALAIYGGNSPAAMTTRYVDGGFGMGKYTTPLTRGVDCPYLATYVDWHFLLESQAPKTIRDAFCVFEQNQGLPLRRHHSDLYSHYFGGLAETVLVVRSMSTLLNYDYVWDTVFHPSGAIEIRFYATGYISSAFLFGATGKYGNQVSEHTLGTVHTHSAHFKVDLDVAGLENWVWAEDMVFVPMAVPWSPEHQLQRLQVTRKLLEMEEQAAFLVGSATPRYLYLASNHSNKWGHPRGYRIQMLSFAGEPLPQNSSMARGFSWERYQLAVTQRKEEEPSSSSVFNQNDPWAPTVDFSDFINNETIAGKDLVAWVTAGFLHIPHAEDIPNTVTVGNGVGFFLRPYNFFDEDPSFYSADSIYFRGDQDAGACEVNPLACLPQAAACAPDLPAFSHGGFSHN
Protocol: As substrate a derivate of the beetle luciferin ((4S)-4,5-dihydro-2-(6-hydroxybenzothiazolyl)-4-thiazole-carboxylic acid) is used, which is oxidized at a primary amine moiety. After a spontaneous elimination and a catalyzed esterase reaction, the turnover of the luciferine by the luciferase is recorded as a signal of AOC3 activity.
Recombinant CHO cells, overexpressing the human (1500 cells/well), mouse (1000 cells/well) or rat (500 cells/well) AOC3 enzyme are diluted in reaction buffer and added in a volume of 15 μL to the wells. After incubation for 20 minutes at 37° C., 2 μL of MAO substrate (dissolved in DMSO at 16 mM, adjusted to assay concentration in reaction buffer to a final assay concentration of 20 μM) is added and further incubated for 60 minutes at 37° C. The turnover of the substrate is determined by the addition of 20 μL of the detection-mix which was generated by the addition of reconstitution buffer with esterase (PROMEGA, #V1402) to the luciferine detection reagent (PROMEGA, #V1402).

[2] = molecular target: T2, AOC1 (Homo sapiens, UniProt P19801); assay: AOC1 biochemical assay (Amplex Red); conditions: Table 1; read-out: AOC1 IC50
T2 construct: purchased R&D Systems 8297-AO-010
T2 sequence (P19801 20-751): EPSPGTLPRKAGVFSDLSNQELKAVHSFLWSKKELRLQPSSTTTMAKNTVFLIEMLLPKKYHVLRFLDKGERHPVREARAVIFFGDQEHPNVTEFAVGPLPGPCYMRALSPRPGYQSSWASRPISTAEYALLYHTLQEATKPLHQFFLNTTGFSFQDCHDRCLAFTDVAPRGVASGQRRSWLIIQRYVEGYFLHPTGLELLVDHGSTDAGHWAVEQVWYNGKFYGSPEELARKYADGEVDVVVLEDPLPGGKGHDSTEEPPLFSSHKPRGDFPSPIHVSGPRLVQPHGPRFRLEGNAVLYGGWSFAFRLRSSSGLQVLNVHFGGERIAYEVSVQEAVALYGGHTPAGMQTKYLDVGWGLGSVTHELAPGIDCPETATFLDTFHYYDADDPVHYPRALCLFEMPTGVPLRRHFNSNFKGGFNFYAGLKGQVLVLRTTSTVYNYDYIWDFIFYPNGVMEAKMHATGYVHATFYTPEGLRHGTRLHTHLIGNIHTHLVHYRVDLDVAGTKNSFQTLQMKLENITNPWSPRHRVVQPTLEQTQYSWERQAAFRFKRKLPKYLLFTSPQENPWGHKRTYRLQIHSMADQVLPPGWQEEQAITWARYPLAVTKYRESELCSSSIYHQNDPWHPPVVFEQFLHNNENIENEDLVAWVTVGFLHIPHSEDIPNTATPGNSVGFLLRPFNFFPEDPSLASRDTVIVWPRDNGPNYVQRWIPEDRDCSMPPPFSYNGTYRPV
From the text: The Amplex® Red Assay (available from Thermo Fisher Scientific) provides a sensitive method for the detection of H2O2 generated during enzymatic reactions like the amine oxidation catalyzed by AOC1.

[3] = test system: pigs; conditions: aminoguanidine 100 mg/kg and gavage of histamine 2 mg/kg; cited from earlier work

Structure (SMILES)	IC50 [1] [nM]	IC50 [2] [nM]	melting point [°C]	death [3]
CC(F)(F)COc1ncc(-c2cccc(COC(=O)NC(=N)N)n2)cn1 [Example 20, [6-[2-(2,2-difluoropropoxy)pyrimidin-5-yl]-2-pyridyl]methyl N-carbamimidoylcarbamate]	5	7210	195	–
N#CC1(COc2ncc(-c3cccc(COC(=O)NC(=N)N)n3)cn2)CC1 [Example 21]	4	3190	–	–
N=C(N)NC(=O)OCc1cccc(-c2ccc(OCc3ccon3)nc2)n1 [Example 23]	2	3820	–	–
N=C(N)NC(=O)OCc1cccc(-c2cnc(OCc3ccon3)nc2)n1 [Example 24, [6-[2-(isoxazol-3-ylmethoxy)pyrimidin-5-yl]-2-pyridyl]methyl N-carbamimidoylcarbamate]	4	1590	183	–
CN(c1ncc(-c2cccc(COC(=O)NC(=N)N)n2)cn1)C1CCOC1 (centres unmarked) [Example 25]	3	483	–	–
N=C(N)NC(=O)OCc1cccc(-c2cnc(OC[C@H]3CC3(F)F)nc2)n1 [Example 26, [6-[2-[[(1R)-2,2-difluorocyclopropyl]methoxy]pyrimidin-5-yl]-2-pyridyl]methyl N-carbamimidoylcarbamate]	3	2520	193 to 196	–
N=C(N)NC(=O)OCc1cccc(-c2cnc(OCCCC(F)(F)F)nc2)n1 [Example 36, [6-[2-(4,4,4-trifluorobutoxy)pyrimidin-5-yl]-2-pyridyl]methyl N-carbamimidoylcarbamate]	5	1150	194 to 197	–
N=C(N)NN [aminoguanidine]	–	–	–	3 out of 15

Continued, in another order:

IC50 [1] [nM]	IC50 [2] [nM]	melting point [°C]	Structure (SMILES)	death [3]
4	3770	–	N#CC1(COc2ncc(-c3cccc(COC(=O)NC(=N)N)n3)cn2)CCC1 [Example 27]	–
15	3290	–	CC(Oc1ncc(-c2cccc(COC(=O)NC(=N)N)n2)cn1)c1ccon1 (centres unmarked) [Example 28]	–
2	659	–	N=C(N)NC(=O)OCc1cccc(-c2cnc(OCc3cncs3)nc2)n1 [Example 29]	–
3	978	–	N=C(N)NC(=O)OCc1cccc(-c2cnc(OCc3cscn3)nc2)n1 [Example 30]	–
3	612	–	N=C(N)NC(=O)OCc1cccc(-c2cnc(OCc3nccs3)nc2)n1 [Example 31]	–
2	710	–	CN(c1ncc(-c2cccc(COC(=O)NC(=N)N)n2)cn1)C1CCOCC1 [Example 32]	–
3	899	–	N=C(N)NC(=O)OCc1cccc(-c2cnc(OCC3CCOCC3)nc2)n1 [Example 33]	–
2	503	–	N=C(N)NC(=O)OCc1cccc(-c2cnc(OCc3cnns3)nc2)n1 [Example 34]	–
3	1020	–	N=C(N)NC(=O)OCc1cccc(-c2cnc(OCc3csnn3)nc2)n1 [Example 35]	–
3	227	–	CC(=O)N1CCC(COc2ncc(-c3cccc(COC(=O)NC(=N)N)n3)cn2)CC1 [Example 37]	–
3	322	–	N=C(N)NC(=O)OCc1cccc(-c2cnc(OCC3CCN(C(=O)C4CC4)CC3)nc2)n1 [Example 38]	–
